# Laboratory results reported in patent publication US20170252442A1, “PHOTOHEXER COMPOUNDS AND PHARMACEUTICAL COMPOSITION AND USE THEREOF” (RAINBOW PHARMATECH LLC, priority 2014, published 2017).
# Tests used:
# CT26 cells = assay: MTT assay, photodynamic therapy on CT26 cells; format: cell-based, murine
# Text: (§1) The cells in logarithmic growth phase were collected and inoculated on 24-well culture plates. When reaching 70%-80% confluence, cells were divided randomly into the following groups: control (the parallel control group without photosensitizer and irradiation), irradiation (irradiation treatment alone without photosensitizer); (photosensitizer treatment alone without irradiation), photodynamic treatment (treatment by photosensitizer in combination with irradiation). For the photosensitizer alone treatment group and photodynamic treatment group, an appropriate amount of Photohexer-1 (P-1) or Photohexer-2 (P-2) was respectively added away from light to give a final concentration of 0.8, 1.6, 3.2, 6.4 μM. Each group set 3 replicates. Cells were incubated with the active agent, different treatments were carried out according to the grouping. […] After treatment and digestion of each group of cells, it was inoculated into a 96-well plate at 100 μL/well, and four wells were set for each treatment. MTT assay was performed after 24 h from inoculation: 20 μL MTT solution was added to each well under the condition away from light, and the culture was continued for 4 hours. 150 μL DMSO was added to each well after discarding the supernatant. After 15 min of dissolution, the absorbance value (OD value) was measured using a microplate reader and the relative survival rate of cells was calculated according to the following formula: […]
# Eca-109 cells = assay: MTT assay, photodynamic therapy on Eca-109 cells; format: cell-based, human
# Text: as §1
# the cell lines = assay: MTT assay, summary over the cell lines (photosensitizer alone); format: cell-based; conditions: without light irradiation; selected drug concentration range (0.8-6.4 μM)
# Text: The cells in logarithmic growth phase were collected and inoculated on 24-well culture plates. When reaching 70%-80% confluence, cells were divided randomly into the following groups: control (the parallel control group without photosensitizer and irradiation), irradiation (irradiation treatment alone without photosensitizer); (photosensitizer treatment alone without irradiation), photodynamic treatment (treatment by photosensitizer in combination with irradiation). For the photosensitizer alone treatment group and photodynamic treatment group, an appropriate amount of Photohexer-1 (P-1) or Photohexer-2 (P-2) was respectively added away from light to give a final concentration of 0.8, 1.6, 3.2, 6.4 μM. Each group set 3 replicates. Cells were incubated with the active agent, different treatments were carried out according to the grouping. Three different light intensities were selected for the photodynamic treatment group, which were 2.6, 5.2 and 12.4 J/cm^2, respectively. After treatment and digestion of each group of cells, it was inoculated into a 96-well plate at 100 μL/well, and four wells were set for each treatment. […] After 15 min of dissolution, the absorbance value (OD value) was measured using a microplate reader and the relative survival rate of cells was calculated according to the following formula: […]
# MCF-7/ADR cells = assay: MTT assay, photodynamic therapy on MCF-7/ADR cells; format: cell-based, human
# Text: as §1
# SW-480 cells = assay: MTT assay, photodynamic therapy on SW-480 cells; format: cell-based, human
# Text: as §1
# [1] = 0.8 μM alone treatment, without irradiation
# [2] = 0.8 μM combined with 2.6 J/cm^2 light irradiation
# [3] = 0.8 μM combined with 5.2 J/cm^2 light irradiation
# [4] = 0.8 μM combined with 10.4 J/cm^2 light irradiation
# [5] = 1.6 μM alone treatment, without irradiation
# [6] = 1.6 μM combined with 2.6 J/cm^2 light irradiation
# [7] = 1.6 μM combined with 5.2 J/cm^2 light irradiation
# [8] = 1.6 μM combined with 10.4 J/cm^2 light irradiation
# [9] = 3.2 μM alone treatment, without irradiation
# [10] = 3.2 μM combined with 2.6 J/cm^2 light irradiation
# [11] = 3.2 μM combined with 5.2 J/cm^2 light irradiation
# [12] = 3.2 μM combined with 10.4 J/cm^2 light irradiation
# [13] = 6.4 μM alone treatment, without irradiation
# [14] = 6.4 μM combined with 2.6 J/cm^2 light irradiation
# [15] = 6.4 μM combined with 5.2 J/cm^2 light irradiation
# [16] = 6.4 μM combined with 10.4 J/cm^2 light irradiation
compound,measurement,setting,value
"C=Cc1c(C)c2cc3nc(cc4[nH]c(cc5nc(cc1[nH]2)C(C)=C5C(C)OCCCCCC)c(C)c4CCC(=O)[O-])C(CCC(=O)[O-])=C3C.[Na+].[Na+] (centres unmarked) [Photohexer P-2, 4-(1-hexyloxyethyl)-6,7-bis(propionatesodium)-1,3,5,8-tetramethyl-2-vinylporphyrin]",photoactivity compared between P-1 and P-2,CT26 cells,stronger than that of P-1
same,Cell survival rate,CT26 cells; [1],94.08 ± 4.27%
same,Cell survival rate,CT26 cells; [2],83.97 ± 3.96%
same,Cell survival rate,CT26 cells; [3],82.55 ± 4.77%
same,Cell survival rate,CT26 cells; [4],70.66 ± 4.66%
same,Cell survival rate,CT26 cells; [5],92.09 ± 3.56%
same,Cell survival rate,CT26 cells; [6],61.29 ± 2.78%
same,Cell survival rate,CT26 cells; [7],49.85 ± 3.55%
same,Cell survival rate,CT26 cells; [8],38.89 ± 3.86%
same,Cell survival rate,CT26 cells; [9],76.30 ± 2.28%
same,Cell survival rate,CT26 cells; [10],44.29 ± 2.41%
same,Cell survival rate,CT26 cells; [11],39.69 ± 2.27%
same,Cell survival rate,CT26 cells; [12],26.01 ± 2.38%
same,Cell survival rate,CT26 cells; [13],50.49 ± 1.03%
same,Cell survival rate,CT26 cells; [14],34.11 ± 1.02%
same,Cell survival rate,CT26 cells; [15],28.61 ± 1.09%
same,Cell survival rate,CT26 cells; [16],18.82 ± 1.01%
same,Cell survival rate,Eca-109 cells; [1],100.38 ± 4.27%
same,Cell survival rate,Eca-109 cells; [2],96.96 ± 3.87%
same,Cell survival rate,Eca-109 cells; [3],75.83 ± 4.22%
same,Cell survival rate,Eca-109 cells; [4],59.89 ± 4.24%
same,Cell survival rate,Eca-109 cells; [5],95.76 ± 3.16%
same,Cell survival rate,Eca-109 cells; [6],86.66 ± 2.94%
same,Cell survival rate,Eca-109 cells; [7],70.66 ± 3.78%
same,Cell survival rate,Eca-109 cells; [8],51.36 ± 3.67%
same,Cell survival rate,Eca-109 cells; [9],94.07 ± 2.58%
same,Cell survival rate,Eca-109 cells; [10],79.33 ± 2.24%
same,Cell survival rate,Eca-109 cells; [11],56.40 ± 2.33%
same,Cell survival rate,Eca-109 cells; [12],40.90 ± 2.34%
same,Cell survival rate,Eca-109 cells; [13],84.49 ± 1.32%
same,Cell survival rate,Eca-109 cells; [14],83.57 ± 1.12%
same,Cell survival rate,Eca-109 cells; [15],33.91 ± 1.07%
same,Cell survival rate,Eca-109 cells; [16],33.91 ± 1.01%
same,cytotoxicity of alone treatment,the cell lines,did not produce significant cytotoxicity
same,cell toxicity,MCF-7/ADR cells,significant cell toxicity
same,Cell survival rate,MCF-7/ADR cells; [1],96.93 ± 4.47%
same,Cell survival rate,MCF-7/ADR cells; [2],94.88 ± 3.94%
same,Cell survival rate,MCF-7/ADR cells; [3],92.76 ± 4.32%
same,Cell survival rate,MCF-7/ADR cells; [4],90.99 ± 4.36%
same,Cell survival rate,MCF-7/ADR cells; [5],92.26 ± 3.26%
same,Cell survival rate,MCF-7/ADR cells; [6],74.79 ± 2.77%
same,Cell survival rate,MCF-7/ADR cells; [7],67.82 ± 3.12%
same,Cell survival rate,MCF-7/ADR cells; [8],54.66 ± 3.43%
same,Cell survival rate,MCF-7/ADR cells; [9],53.84 ± 2.58%
same,Cell survival rate,MCF-7/ADR cells; [10],50.37 ± 2.13%
same,Cell survival rate,MCF-7/ADR cells; [11],48.99 ± 2.16%
same,Cell survival rate,MCF-7/ADR cells; [12],46.57 ± 2.76%
same,Cell survival rate,MCF-7/ADR cells; [13],48.88 ± 1.13%
same,Cell survival rate,MCF-7/ADR cells; [14],43.68 ± 1.06%
same,Cell survival rate,MCF-7/ADR cells; [15],41.49 ± 0.96%
same,Cell survival rate,MCF-7/ADR cells; [16],34.75 ± 1.22%
same,photodynamic activity compared between P-1 and P-2,SW-480 cells,better activity than P-1
same,Cell survival rate,SW-480 cells; [1],101.79 ± 4.08%
same,Cell survival rate,SW-480 cells; [2],100.79 ± 3.76%
same,Cell survival rate,SW-480 cells; [3],96.70 ± 3.63%
same,Cell survival rate,SW-480 cells; [4],94.70 ± 4.16%
same,Cell survival rate,SW-480 cells; [5],96.97 ± 4.27%
same,Cell survival rate,SW-480 cells; [6],91.72 ± 2.89%
same,Cell survival rate,SW-480 cells; [7],87.06 ± 2.51%
same,Cell survival rate,SW-480 cells; [8],75.11 ± 3.24%
same,Cell survival rate,SW-480 cells; [9],68.15 ± 2.78%
same,Cell survival rate,SW-480 cells; [10],63.40 ± 2.24%
same,Cell survival rate,SW-480 cells; [11],53.01 ± 1.99%
same,Cell survival rate,SW-480 cells; [12],43.68 ± 2.54%
same,Cell survival rate,SW-480 cells; [13],57.31 ± 2.33%
same,Cell survival rate,SW-480 cells; [14],45.36 ± 1.22%
same,Cell survival rate,SW-480 cells; [15],42.56 ± 1.06%
same,Cell survival rate,SW-480 cells; [16],27.83 ± 1.13%
